According to patent publication US9353419B2, “Biomarkers for IAP inhibitor therapy” (Novartis AG, priority 2012, dated 2016):

Assays:
[1] = test system: patient-derived tumor models representing triple negative breast cancer, NSCLC and pancreatic cancer; test: single agent activity in patient-derived tumor models (primary human tumors grown as xenografts in mice); format: in vivo
Text: In addition, (S)—N—((S)-1-Cyclohexyl-2-{(S)-2-[4-(4-fluoro-benzoyl)-thiazol-2-yl]-pyrrolidin-1-yl}-2-oxo-ethyl)-2-methylamino-propionamide has been tested for single agent activity in 55 patient-derived tumor models representing triple negative breast cancer, NSCLC and pancreatic cancer models.

[2] = test system: panel of >500 tumor cell lines; test: 72 hour proliferation assay, single agent cellular activity against tumor cell line panel; format: cell-based
Text: We used a statistical framework that integrates pharmacological data together with genetic and mRNA expression data in order to develop biomarkers for predicting response to IAP inhibitors. Using genomic data generated as part of the Cancer Cell Line Encyclopedia collection (Barretina J S, Caponigro G, Stransky N et al (2012) Nature; 483:603-7), we assembled gene copy number, mRNA expression and mutation data into a single matrix. Single agent cellular activity of various IAP antagonists was assessed against a panel of >500 tumor cell lines using a 72 hour proliferation assay. We classified these cell lines into sensitive, intermediate and refractory classes based on the distribution of IC50 data and manual curation of individual responses. A statistical test was applied in order to identify genomic “features” that could differentiate IAP antagonist-sensitive cell lines from refractory lines. Among the top-ranked genes showing differential mRNA expression were TNF and RIPK1, two genes with evidence for apoptotic response to IAP antagonists based on previous experimental studies involving one or a few cell lines. We are thus able to extend prior observations on limited experiments systematically to a large set of data and identified an additional set of seven genes (CXLC10, CCL5, NFKBIA, HERC5, CDYL, STK39 and MAPK14), whose mRNAs were differentially expressed in sensitive compared refractory lines.
We built a predictive machine learning model using the Naive Bayes classifier based on the 9-gene signature as well as a 2-gene TNF/RIPK1 signature. […] For example, at model cutoffs optimized to obtain balanced performance between sensitivity and specificity for each model, the signatures yielded response rates of 16-18% in cross-validation compared to 8% response rate at random without any selection. This improved response rate was further validated in independent experimental testing of a compound-naive set of cell lines that were predicted to be sensitive (AUCs in Table 2).

**Q.** What does the source list for `CN[C@@H](C)C(=O)N[C@H](C(=O)N1CCC[C@H]1c1nc(C(=O)c2ccc(F)cc2)cs1)C1CCCCC1` [(S)—N—((S)-1-Cyclohexyl-2-{(S)-2-[4-(4-fluoro-benzoyl)-thiazol-2-yl]-pyrrolidin-1-yl}-2-oxo-ethyl)-2-methylamino-propionamide]?
**A.** single agent activity (range of responses) ([1]; 55 patient-derived tumor models): ranging from tumor regression to no effect; response rate ([1]; at random, 55 patient-derived tumor models): 11%; response rate ([1]; models selected by 2-gene, 3-gene and 9-gene signatures, balanced model cutoffs): ~30%; cell line response rate ([2]; at random, without any selection ("all-comers" cell lines)): 8%; increase in response rate compared to random or "all-comers" cell lines ([2]; at several model cutoff regimes of the predictive signatures): two- to three-fold; cell line response rate ([2]; cell lines selected by gene signatures (2-gene, 9-gene), balanced model cutoffs, cross-validation): 16-18%
